Data reported in patent US20240092863A1, “ANTIMICROBIAL TARGET” (priority 2020, published 2024).
Where a SMILES comes first, the peptide text is derived from it. Bridges are numbered along the chain shown (N, C = ends). Where no end group is shown, it is not given here. [ ]: non-standard residue; d: D form. S5 = C=CCCC[C@](C)(N)C(=O)O

How the values were obtained:
[1] = tested on: P. aeruginosa PA01; experiment: Stability to bacterial cultures (P. aeruginosa PA01), residual activity in infection assay on HaCaT; type: in vitro ADME, Pseudomonas aeruginosa; conditions: 4 hrs incubation with growing culture
[2] = tested on: S. aureus SH1000
Protocol: Protease stability was assessed using trypsin, chymotrypsin and human serum. Peptides at 100 μg/ml were incubated in 100 mM ammonium bicarbonate+2 mM calcium chloride were digested using trypsin (2 mg/ml), chymotrypsin (2 mg/ml) or human serum (25% (v/v)) for 1 or 18 hours. Digestion was performed at 37° C. for trypsin and human serum, and 25° C. for chymotrypsin. Reaction was stopped with 2.5% formic acid for trypsin and chymotrypsin. Human serum proteins were precipitated with acetonitrile. Supernatants were analysed on LC-MS. Stability to bacterial proteases was also analysed in cultures of S. aureus SH100 and P. aeruginosa PA01. 20 nM peptides in Keratinocyte-Serum Free Medium (KFSM) were incubated with mid-log phase cultures of bacteria for 4 hours. Bacteria were then removed by centrifugation and the supernatants used in bacterial adhesion assays, as described below.
Human cells in 96-well plates were washed with 200 ul HBSS and incubated with 200 μl 5% (w/v) BSA for 1 hour at 37° C., washed twice with 200 μl HBSS prior to incubation for 1 hour at 37° C. with peptides diluted in DMEM, or DMEM alone for control well. After removal of peptide solutions, wells were infected for 1 hour at 37° C. with 50 μl bacteria suspended in DMEM at optimised multiplicities of infection (MOI). […]

[3] = tested on: chymotrypsin; experiment: Protease stability: chymotrypsin digestion, LC-MS; type: in vitro ADME; conditions: 100 ug/ml peptide, chymotrypsin 2 mg/ml, 25° C., 1 hour
[4] = tested on: trypsin; experiment: Protease stability: trypsin digestion, LC-MS; type: in vitro ADME; conditions: 100 ug/ml peptide, trypsin 2 mg/ml, 37° C., 1 hour
[5] = tested on: S. aureus; experiment: S. aureus adhesion to HaCaT human keratinocyte cells (bacterial adhesion assay, CFU); type: cell-based, Staphylococcus aureus; conditions: 200 nM peptide; FIG. 1B
Protocol: HaCaT human keratinocyte cells were cultured in DMEM supplemented with 10% (v/v) foetal bovine serum. Cells were subcultured by trypsinisation. For bacterial adhesion assays, HaCaT cells (10,000 cells/well) were grown overnight in 96-well plates.
For infection assays, bacterial were cultured from a single agar plate colony overnight in 5 ml of the appropriate growth medium. Then cultures were harvested by centrifugation, washed with 10 ml PBS, re-suspended in growth medium and incubated to achieve an OD600 equivalent to 5×10^8 CFU/ml. Cultures were again harvested by centrifugation, washed twice with PBS and re-suspended in DMEM at an appropriate density.

[6] = Protease stability: chymotrypsin digestion, LC-MS; type: in vitro ADME; conditions: 100 ug/ml peptide, chymotrypsin 2 mg/ml, 25° C., 18 hours; read-out: peptide still undigested in chymotrypsin at 18 hours
[7] = Protease stability: trypsin digestion, LC-MS; type: in vitro ADME; conditions: 100 ug/ml peptide, trypsin 2 mg/ml, 37° C., 18 hours; read-out: peptide still undigested in trypsin at 18 hours
[8] = tested on: S. aureus SH1000; experiment: Mouse in vivo skin infection model; set-up: species or system Staphylococcus aureus; conditions: mice, 200 nM peptide mixed with S. aureus SH1000 in a bandage on depilated skin; FIG. 9
Protocol: C57/Bl6 mice were shaved to produce a bare area of approximately 2×2 cm. Depilatory cream was applied to depilate this area. A bandage was applied that contained a saline solution containing 200 nM of mouse 800-CAP, its scrambled control or human 800ii, and S. aureus SH1000. After 5 days, the mice were sacrificed and the depilated skin processed to release bacteria. The infection was assessed as CFU, and normalised to untreated control mice (=100). The experiment was performed 3 times using groups of 3 mice for each condition. Data are shown as the means of each separate experiment. Significance of the difference from 100 was calculated using a one-sample t test.

[9] = tested on: S. aureus; conditions: reference [7]; cited from earlier work
[10] = tested on: S. aureus SH1000; conditions: cited from earlier work

In the case of DEPQRETLKAIHYALN [800-Cap], the “peptide activity degraded by incubation with P. aeruginosa PA01 culture” value ([1]; residual activity on S. aureus SH1000 / HaCaT) is reported as ~50%, the “peptide activity degraded by incubation with S. aureus SH1000 culture” value [2] is reported as ~50% and the “digestion by chymotrypsin after 1 hour” value [3] is reported as “completely digested”. The “digestion by trypsin after 1 hour” value [4] was “completely digested”.
For “SEQ ID NO: 17: shorter form of peptide 800-Cap (DEPQRETL; first short form of 800-Cap)”, the “inhibitory activity against S. aureus adhesion to human keratinocyte line HaCaT” value (shortened to “inhibitory activity”) [5] was “little or no inhibitory activity”.
For `CC[C@H](C)[C@H](NC(=O)[C@H](C)NC(=O)[C@H](CCCCN)NC(=O)[C@H](CC(C)C)NC(=O)[C@]1(C)CCCC=CCCC[C@](C)(NC(=O)[C@H](CCC(=O)O)NC(=O)[C@@H](N)CC(=O)O)C(=O)N[C@@H](CCC(N)=O)C(=O)N[C@@H](CCCNC(=N)N)C(=O)N[C@@H](CCC(=O)O)C(=O)N1)C(=O)N[C@@H](Cc1c[nH]cn1)C(=O)N[C@@H](Cc1ccc(O)cc1)C(=O)N[C@@H](C)C(=O)N[C@@H](CC(C)C)C(=O)N[C@@H](CC(N)=O)C(=O)O` [800i] (H-DE[S5]QRE[S5]LKAIHYALN-OH; staple 3-7; N-terminus and C-terminus assumed), the “resistance of peptide activity to P. aeruginosa PA01 culture” value [1] was “resistant”.
In the case of `CC[C@H](C)[C@@H]1NC(=O)[C@@](C)(NC(=O)[C@H](CCCCN)NC(=O)[C@H](CC(C)C)NC(=O)[C@@H](NC(=O)[C@H](CCC(=O)O)NC(=O)[C@H](CCCNC(=N)N)NC(=O)[C@H](CCC(N)=O)NC(=O)[C@@H]2CCCN2C(=O)[C@H](CCC(=O)O)NC(=O)[C@@H](N)CC(=O)O)[C@@H](C)O)CCCC=CCCC[C@@](C)(C(=O)N[C@@H](CC(C)C)C(=O)N[C@@H](CC(N)=O)C(=O)O)NC(=O)[C@H](Cc2ccc(O)cc2)NC(=O)[C@H](Cc2c[nH]cn2)NC1=O` [800ii] (H-DEPQRETLK[S5]IHY[S5]LN-OH; staple 10-14; N-terminus and C-terminus assumed), the “resistance of peptide activity to P. aeruginosa PA01 culture” value [1] is reported as “resistant”, the remaining at 18 h, 100 µg/ml [6] is reported as 20% and the “digestion by chymotrypsin after 1 hour” value [3] is reported as “not digested at all”. For the same compound, the remaining at 18 h, 100 µg/ml [7] was 50% and the “digestion by trypsin after 1 hour” value [4] was “not digested at all”.
With “mouse equivalent of 800-CAP: the mouse equivalent of 800-CAP; probably SEQ ID NO: 6 (DEPQRETLKAIHMALD; listed as Mus musculus)” the “bacterial load in skin after 5 days” value [8] was “significantly reduced”.
In the case of “1: synthetic peptide with helix-preserving Ala residues replacing Glu26/Arg29 (DAPQAETLKAIHYALN; Glu26/Arg29 mutant 800-Cap peptide) [compound 1]”, the “inhibitory activity” value [5] is reported as “no activity”.
For “6: synthetic peptide with helix-preserving Ala residues replacing Ile35/Leu39 (DEPQRETLKAAHYAAN; Ile35/Leu39 mutant 800-Cap peptide) [compound 6]”, the “inhibitory activity” value [5] was “no activity”.
In the case of “peptide 7: synthetic peptide with helix-preserving Ala residues replacing Pro27/Thr31 (DEAQREALKAIHYALN; Pro27/Thr31 mutant 800-Cap peptide)”, the “inhibitory activity” value [5] is reported as “retained full activity”.
In the case of “800: short peptide derived from the primary sequence of the tetraspanin CD9 large extracellular domain (EC2); previously published (EPQRETLKAIHYALN; 800 peptide sequence) [compound 800]”, the “functional activity, time and dose dependence” value [9] is given as “functionally active in a time and dose-dependent manner”, the “reduction of adherence of Staphylococcus aureus binding to human keratinocyte cells” value [9] is given as “can reduce the adherence” and the “activity against S. aureus adhesion to a wound model of human skin” value ([10]; previously published (Ventress et al., 2016)) is given as “active”. The “bacterial burden in a 3D model of human skin” value ([10]; reference [7]) was “effective in lowering bacterial burden”.
For “SEQ ID NO: 18: shorter form of peptide 800-Cap (KAIHYALN; second short form of 800-Cap)”, the “inhibitory activity” value [5] was “little or no inhibitory activity”.
